Results on nine compounds are retold here after PubChem BioAssay (NCI).

Each structure is given as a SMILES string.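 Five concentrations, 48 hours, 96-well plates. The concentration for 50% growth inhibition is given as GI50. The concentration for full growth arrest is given as TGI.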

For orientation: TGI means the concentration giving total growth inhibition. Higher therefore signals lower sensitivity of the cells. Broadly, the GI50 is the concentration giving 50% growth inhibition.

Holding throughout (assay): DTP human tumour cell line panel, 48 h
The subject of assay [1] is NCI-H522 lung.
In assay [2] the test system is SF-268 CNS.
The test system of assay [3] is HT29 colon.
Assay [4] concerns HCT-15 colon.
Assay [5] concerns NCI/ADR-RES ovarian.
Assay [6] relates to OVCAR-3 ovarian.
Assay [7] concerns RPMI-8226 leukemia.
Assay [8] concerns SNB-19 CNS.
For assay [9], the system named is SF-295 CNS.
The test system of assay [10] is HOP-92 NSCLC.

`c1ccc2c(c1)-c1nc3ccccc3cc1C2N1CCOCC1` (stereo unspecified): the TGI in assay [1], in assay [2], in assay [3], in [4], in assay [5] and in [6] was above 100 µM each time. The TGI in assay [7], in assay [8] and in [9] was above 100 µM throughout.

Consider `c1ccc(Oc2cnc3ccccc3n2)cc1`, for which the GI50 in assay [1] is above 100 µM; in [2] it was 64 µM; in assay [3], above 100 µM; in assay [4], above 100 µM; in assay [5], above 100 µM; in assay [6], above 100 µM. Further, the GI50 is above 100 µM in assay [7], above 100 µM in [8] and 36.4 µM in assay [9]. The TGI in assay [1], in [2], in assay [3], in [4], in assay [5] and in assay [6] was above 100 µM throughout. Further, the TGI in assay [7], in assay [8] and in assay [9] was above 100 µM each time.

In the case of `Nc1nc(-c2ccccc2Cl)cc(-c2ccc(Cl)cc2Cl)n1`, the GI50 was 0.527 µM in [10]; 3.27 µM in [1]; 5.01 µM in assay [2]; 4.32 µM in assay [3]; 5.09 µM in assay [4]; 14.8 µM in [5]. In addition, the figures for the GI50 in assay [6], in assay [7] and in assay [8] were 4.05 µM, 3.1 µM and 16.1 µM, respectively. The TGI is 7.62 µM in assay [10]; 23.3 µM in assay [1]; 81.6 µM in assay [2]; 24.3 µM in assay [3]; above 100 µM in [4]; above 100 µM in assay [5]. Moreover, the TGI is 20.7 µM in assay [6], 17.6 µM in assay [7] and above 100 µM in assay [8].

For `OC(c1cc2c(Cl)cc(Cl)cc2c2cc(C(F)(F)F)ccc12)C1CCCCN1` (stereo unspecified), the GI50 in [10] is 1.12 µM; in assay [1], 1.55 µM; in [2], 1.86 µM; in assay [3], 1.97 µM; in assay [5], 1.77 µM; in assay [6], 1.91 µM. The GI50 in assay [7] is 2.3 µM. In addition, the TGI in [10] amounted to 2.57 µM; in [1] it was 3.22 µM; in assay [2], 3.82 µM; in assay [3], 3.71 µM; in [5] it was 3.64 µM; in [6], 3.52 µM. The compound further gave a TGI in [7] of 4.95 µM.

Consider `CC(=O)O[C@H]1CC[C@@]2(C)[C@@H](CC[C@@H]3[C@@H]2CC(=O)[C@@]2(C)[C@H]3C[C@@H]3CC(C)=CC(=O)[C@@H]32)C1`, for which the TGI in assay [1], in assay [2], in assay [3], in assay [4], in assay [5] and in [6] was above 100 µM in each case. In addition, the results for the TGI in assay [7], in [8] and in assay [9] were 45.8 µM, above 100 µM and above 100 µM, respectively.

For the compound `COc1ccc2c(c1)cn1c3ccc(OC)cc3[nH]c(=O)c21`, the GI50 is below 0.0134 µM in assay [1]; below 0.0229 µM in assay [2]; below 0.0155 µM in assay [3]; below 0.0177 µM in assay [4]; below 0.01 µM in assay [5]; below 0.0152 µM in assay [6]. For the same compound, the GI50 was 0.0253 µM in assay [7], below 0.0405 µM in assay [8] and below 0.0169 µM in [9]. In addition, the TGI in [1] is 0.15 µM; in [2], 1.47 µM; in [3], 0.281 µM; in [4], 1.11 µM; in assay [6] it was below 0.024 µM; in assay [7], 0.0984 µM. The compound also had a TGI in assay [8] of 7.36 µM.

For the compound `C/C(=N\O)c1ccc(Nc2cc(-c3ccccc3)nc3c(O)cccc23)cc1`, the GI50 was 20.1 µM in [10]; 16.7 µM in assay [1]; 19.8 µM in assay [3]; 4.75 µM in assay [4]; 8.54 µM in assay [5]; 5.49 µM in [6]. The values for the GI50 in assay [7] and in assay [9] were 4.5 µM and 5.24 µM, respectively. In addition, the TGI in assay [10] was 44.6 µM; in assay [1], 33.3 µM; in assay [3], 48.1 µM; in [4], 26.4 µM; in [5], 35.5 µM; in assay [6], 31.7 µM. In addition, the TGI amounted to 30.8 µM in assay [7] and 18.3 µM in [9].

Turning to `Cc1cc(=O)[nH]c2c1C(=O)C(=O)C=C2`, the GI50 in [10] was 77.9 µM; in [1] it was above 100 µM; in [2], 18.7 µM; in assay [3], 38.2 µM; in assay [4] it was 60.5 µM; in assay [5], 18.4 µM. Further, the GI50 is 39 µM in [7], 42.7 µM in assay [8] and 24.1 µM in assay [9]. In addition, the TGI in assay [10] is above 100 µM; in [1], above 100 µM; in assay [2] it was 43.7 µM; in assay [3], above 100 µM; in [4], above 100 µM; in assay [5], 40.7 µM. For the same compound, the TGI was above 100 µM in [7], above 100 µM in [8] and 52.8 µM in assay [9].

On to `COc1ccc2c(C(=O)NCCCCCC(=O)O)cc3cc4c(cc3c2c1)OCO4`, for which the GI50 in [10] is above 100 µM; in assay [2] it was 58 µM; in [3], above 100 µM; in [4] it was above 100 µM; in assay [5], above 100 µM; in [6] it was above 100 µM. The GI50 in assay [7], in assay [8] and in [9] was above 100 µM in each case. The TGI in assay [10], in assay [2], in [3], in assay [4], in assay [5] and in [6] was above 100 µM each time. Moreover, the concentration for total growth inhibition (TGI) in [7], in assay [8] and in assay [9] was above 100 µM each time.
